Assay results: patent US6896900B2, “β-L-2'-deoxy-nucleosides for the treatment of HIV infection” (Emory University, priority 1998, dated 2005)

Key:
HIV-1 (strain LAV) = experiment: Inhibition of HIV-1 replication in human PBM cells (reverse transcriptase readout); assay type: cell-based; settings: for EC50: Human immunodeficiency virus 1, PBMC, 144 h, HIV-1 strain LAV, day 6, read-out: Antiviral Activity EC50
Protocol: Antiviral compositions can be screened in vitro for inhibition of HIV by various experimental techniques. One such technique involves measuring the inhibition of viral replication in human peripheral blood mononuclear (PBM) cells. The amount of virus produced is determined by measuring the quantity of virus-coded reverse transcriptase (RT), an enzyme found in retroviruses, that is present in the cell culture medium.
Three-day-old phytohemagglutinin-stimulated PBM cells (10^6 cells/ml) from hepatitis B and HIV-1 seronegative healthy donors were infected with HIV-1 (strain LAV) at a concentration of about 100 times the 50% tissue culture infectious done (TICD 50) per ml and cultured in the presence and absence of various concentrations of antiviral compounds.
Approximately one hour after infection, the medium, with the compound to be tested (2 times the final concentration in medium) or without compound, was added to the flasks (5 ml; final volume 10 ml). AZT was used as a positive control. The cells were exposed to the virus (about 2×10^5 dpm/ml, as determined by reverse transcriptase assay ) and then placed in a CO2 incubator. HIV-1 (strain LAV) was obtained from the Centers for Disease Control, Atlanta, Ga. The methods used for culturing the PBM cells, harvesting the virus and determining the reverse transcriptase activity were those described by McDougal et al. (J. Immun. Meth. 76, 171-183, 1985) and Spira et al., (J. Clin. Meth. 25, 97-99, 1987), except that fungizone was not included in the medium (see Schinazi, et al., Antimicrob. Agents Chemother. 32, 1784-1787 (1988); Antimicrob. Agents Chemother., 34: 1061-1067 (1990)).
On day 6, the cells and supernatant were transferred to a 15 ml tube and centrifuged at about 900 g for 10 minutes. Five ml of supernatant were removed and the virus was concentrated by centrifugation at 40,000 rpm for 30 minutes (Beckman 70.1 Ti rotor). The solubilized virus pellet was processed for determination of the levels of reverse transcriptase. Results are expressed in dpm/ml of sampled supernatant. Virus from smaller volumes of supernatant (1 ml) can also be concentrated by centrifugation prior to solubilization and determination of reverse transcriptase levels.
The median effective (EC50) concentration was determined by the median effect method (Antimicrob. Agents Chemother. 30, 491-498 (1986). Briefly, the percent inhibition of virus, as determined from measurements of reverse transcriptase, is plotted versus the micromolar concentration of compound. The EC50 is the concentration of compound at which ther is a 50% inhibition of viral growth.
(§1) The anti-HIV activity of L-2′-A-5-FddC and L-3′-A-5-FddC was tested in CEM and PBM cells.

[1] = Cytotoxicity in CEM cells; assay type: cell-based; settings: human
[2] = Cytotoxicity in uninfected human PBM cells (trypan blue cell count); assay type: cell-based; settings: mitogen-stimulated uninfected human PBM cells, six days
Protocol: Mitogen stimulated uninfected human PBM cells (3.8×10^5 cells/ml) were cultured in the presence and absence of drug under similar conditions as those used for the antiviral assay described above. The cells were counted after six days using a hemacytometer and the trypan blue exclusion method, as described by Schinazi et al., Antimicrobial Agents and Chemotherapy, 22(3), 499 (1982). The IC50 is the concentration of compound which inhibits 50% of normal cell growth. The anti-HIV activity of L-2′-A-5-FddC and L-3′-A-5-FddC was tested in CEM and PBM cells.

HIV = experiment: Anti-HIV activity in CEM cells; assay type: cell-based; settings: for EC50: Human immunodeficiency virus 1, CCRF-CEM, read-out: Antiviral Activity EC50
Protocol: as §1

| Structure (SMILES) | Selectivity Index IC50/EC50 (HIV-1 (strain LAV)) | EC50 (HIV-1 (strain LAV)) [µM] | melting point [°C] | IC50 [1] [µM] | IC50 at 6 days [2] [µM] | Selectivity Index IC50/EC50 (HIV) | EC50 (HIV) [µM] |
| --- | --- | --- | --- | --- | --- | --- | --- |
| [N-]=[N+]=NC1C[C@H](CO)O[C@@H]1n1cc(F)c(N)nc1=O (stereo partly drawn) [L-2′-A-5-FddC, β-L-(2′-azido)-2′,3′-dideoxy-5-fluorocytosine] | >100 | 1 | 219 to 221 | > 100 | > 100 | >30 | 3.9 |
| [N-]=[N+]=NC1C[C@@H](n2cc(F)c(N)nc2=O)O[C@H]1CO (stereo partly drawn) [L-3′-A-5-FddC, β-L-(3′-azido)-2′,3′-dideoxy-5-fluorocytosine] | >2647 | 0.05 |  | > 100 | > 100 | >344 | 0.29 |
